Data published in patent US6462038B1, “Androgen receptor modulator compounds and methods” (Ligand Pharmaceuticals, Inc., priority 1999, dated 2002).
Like-named read-outs stand apart in the source and are kept apart here.

How the values were obtained:
Format in all cases: cell-based
[1] = molecular target: T1, ER (Homo sapiens, UniProt P03372); experiment: co-transfection assay, ER agonist
T1 construct: expressed in transfected cells; host or cells: CV-1 cells
Experimental: (§1) CV-1 cells (African green monkey kidney fibroblasts) were cultured in the presence of Dulbecco's Modified Eagle Medium (DMEM) supplemented with 10% charcoal resin-stripped fetal bovine serum (CH-FBS) then transferred to 96-well microtiter plates one day prior to transfection.
(§2) Three to four replicates were used for each sample.
(§3) After 40 hours, the cells were washed with PBS, lysed with a Triton X-100-based buffer and assayed for LUC and β-Gal activities using a luminometer or spectrophotometer, respectively. For each replicate, the normalized response (NR) was calculated as: […]

[2] = molecular target: T2, PR (Homo sapiens, UniProt P06401); experiment: co-transfection assay, PR agonist
T2 construct: expressed in transfected cells; host or cells: CV-1 cells
T2 sequence (P06401 1-933): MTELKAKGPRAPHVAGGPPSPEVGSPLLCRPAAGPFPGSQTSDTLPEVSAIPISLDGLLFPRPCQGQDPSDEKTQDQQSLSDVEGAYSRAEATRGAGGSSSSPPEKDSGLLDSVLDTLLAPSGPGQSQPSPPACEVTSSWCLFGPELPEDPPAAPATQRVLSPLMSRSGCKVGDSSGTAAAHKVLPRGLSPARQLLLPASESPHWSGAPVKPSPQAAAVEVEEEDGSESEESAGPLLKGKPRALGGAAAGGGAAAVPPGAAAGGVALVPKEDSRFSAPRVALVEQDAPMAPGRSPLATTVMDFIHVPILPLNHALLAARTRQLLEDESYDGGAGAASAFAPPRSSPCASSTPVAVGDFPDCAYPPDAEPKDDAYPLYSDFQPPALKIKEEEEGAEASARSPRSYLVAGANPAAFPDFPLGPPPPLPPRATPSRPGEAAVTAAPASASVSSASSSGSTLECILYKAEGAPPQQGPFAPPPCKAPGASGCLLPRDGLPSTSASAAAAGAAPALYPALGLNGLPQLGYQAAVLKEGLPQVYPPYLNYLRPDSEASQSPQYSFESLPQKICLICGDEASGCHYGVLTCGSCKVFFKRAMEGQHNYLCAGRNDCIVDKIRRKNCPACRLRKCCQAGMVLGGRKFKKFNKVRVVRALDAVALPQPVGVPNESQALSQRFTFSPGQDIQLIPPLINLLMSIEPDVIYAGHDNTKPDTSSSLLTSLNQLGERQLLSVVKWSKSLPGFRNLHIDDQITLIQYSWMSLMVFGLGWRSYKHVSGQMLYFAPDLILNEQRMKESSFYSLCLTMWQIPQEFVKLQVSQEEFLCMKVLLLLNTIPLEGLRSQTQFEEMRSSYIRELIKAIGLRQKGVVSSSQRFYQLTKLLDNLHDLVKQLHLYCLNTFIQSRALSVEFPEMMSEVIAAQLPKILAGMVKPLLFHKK
Experimental: as §1, §2, §3

[3] = molecular target: T1, ER; experiment: co-transfection assay, ER antagonist
Experimental: as §1, §2, §3

[4] = molecular target: T2, PR; experiment: co-transfection assay, PR antagonist (in presence of progesterone)
Experimental: as §1, §2, §3

[5] = molecular target: T3, MR (Homo sapiens, UniProt P08235); experiment: co-transfection assay, MR antagonist
T3 construct: expressed in transfected cells; host or cells: CV-1 cells
T3 sequence (P08235 1-984): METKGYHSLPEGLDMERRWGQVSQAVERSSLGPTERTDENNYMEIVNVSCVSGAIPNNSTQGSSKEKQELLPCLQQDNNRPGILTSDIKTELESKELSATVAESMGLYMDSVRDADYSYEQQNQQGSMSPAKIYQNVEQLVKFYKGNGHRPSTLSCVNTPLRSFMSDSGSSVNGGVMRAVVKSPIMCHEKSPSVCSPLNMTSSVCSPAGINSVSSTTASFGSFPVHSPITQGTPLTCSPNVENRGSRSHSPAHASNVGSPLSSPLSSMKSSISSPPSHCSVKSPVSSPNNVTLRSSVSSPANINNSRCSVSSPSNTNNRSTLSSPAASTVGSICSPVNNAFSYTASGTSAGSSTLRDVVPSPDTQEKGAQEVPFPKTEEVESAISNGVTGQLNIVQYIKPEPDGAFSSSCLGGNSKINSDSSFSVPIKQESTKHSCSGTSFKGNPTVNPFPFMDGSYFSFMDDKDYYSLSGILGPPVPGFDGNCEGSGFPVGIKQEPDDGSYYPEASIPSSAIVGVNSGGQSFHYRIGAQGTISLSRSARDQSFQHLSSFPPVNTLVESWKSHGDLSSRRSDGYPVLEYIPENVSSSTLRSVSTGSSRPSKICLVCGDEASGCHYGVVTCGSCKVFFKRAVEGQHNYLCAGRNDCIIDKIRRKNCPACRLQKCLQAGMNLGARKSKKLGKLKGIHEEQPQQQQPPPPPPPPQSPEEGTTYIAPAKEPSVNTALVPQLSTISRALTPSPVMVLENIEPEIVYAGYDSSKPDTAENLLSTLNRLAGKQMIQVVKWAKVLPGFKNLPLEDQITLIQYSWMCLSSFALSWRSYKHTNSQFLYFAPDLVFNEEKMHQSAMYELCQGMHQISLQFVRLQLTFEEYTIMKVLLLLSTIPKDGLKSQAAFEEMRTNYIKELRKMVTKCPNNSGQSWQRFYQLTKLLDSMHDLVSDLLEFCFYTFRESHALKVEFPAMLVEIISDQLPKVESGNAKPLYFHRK
Experimental: as §1, §2, §3

[6] = molecular target: T4, GR (Homo sapiens, UniProt P04150); experiment: co-transfection assay, GR antagonist
T4 construct: expressed in transfected cells; host or cells: CV-1 cells
T4 sequence (P04150 1-777): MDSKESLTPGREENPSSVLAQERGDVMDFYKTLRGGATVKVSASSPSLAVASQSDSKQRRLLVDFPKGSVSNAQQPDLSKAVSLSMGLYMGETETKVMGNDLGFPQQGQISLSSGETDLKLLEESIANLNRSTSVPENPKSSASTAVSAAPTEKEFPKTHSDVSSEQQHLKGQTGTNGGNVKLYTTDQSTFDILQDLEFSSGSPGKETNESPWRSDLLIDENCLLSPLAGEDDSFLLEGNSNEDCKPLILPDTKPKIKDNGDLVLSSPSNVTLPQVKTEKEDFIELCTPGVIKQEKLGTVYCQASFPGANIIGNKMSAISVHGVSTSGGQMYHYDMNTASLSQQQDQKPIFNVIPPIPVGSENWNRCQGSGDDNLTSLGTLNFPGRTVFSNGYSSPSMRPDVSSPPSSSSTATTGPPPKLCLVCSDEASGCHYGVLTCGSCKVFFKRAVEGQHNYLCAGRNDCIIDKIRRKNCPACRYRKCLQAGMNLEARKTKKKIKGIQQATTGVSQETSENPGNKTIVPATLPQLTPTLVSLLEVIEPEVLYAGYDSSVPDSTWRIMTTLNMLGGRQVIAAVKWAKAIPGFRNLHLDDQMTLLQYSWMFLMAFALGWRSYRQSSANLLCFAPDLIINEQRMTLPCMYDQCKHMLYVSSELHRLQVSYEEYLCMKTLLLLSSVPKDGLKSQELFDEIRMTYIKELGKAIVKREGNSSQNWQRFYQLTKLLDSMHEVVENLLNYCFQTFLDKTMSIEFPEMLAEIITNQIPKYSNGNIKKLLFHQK
Experimental: as §1, §2, §3

[7] = molecular target: T5, hAR (Homo sapiens, UniProt P10275); experiment: co-transfection assay, AR antagonist (in presence of DHT), CV-1 cells
T5 construct: expressed in transfected cells; host or cells: CV-1 cells (African green monkey kidney fibroblasts)
T5 sequence (P10275 1-920): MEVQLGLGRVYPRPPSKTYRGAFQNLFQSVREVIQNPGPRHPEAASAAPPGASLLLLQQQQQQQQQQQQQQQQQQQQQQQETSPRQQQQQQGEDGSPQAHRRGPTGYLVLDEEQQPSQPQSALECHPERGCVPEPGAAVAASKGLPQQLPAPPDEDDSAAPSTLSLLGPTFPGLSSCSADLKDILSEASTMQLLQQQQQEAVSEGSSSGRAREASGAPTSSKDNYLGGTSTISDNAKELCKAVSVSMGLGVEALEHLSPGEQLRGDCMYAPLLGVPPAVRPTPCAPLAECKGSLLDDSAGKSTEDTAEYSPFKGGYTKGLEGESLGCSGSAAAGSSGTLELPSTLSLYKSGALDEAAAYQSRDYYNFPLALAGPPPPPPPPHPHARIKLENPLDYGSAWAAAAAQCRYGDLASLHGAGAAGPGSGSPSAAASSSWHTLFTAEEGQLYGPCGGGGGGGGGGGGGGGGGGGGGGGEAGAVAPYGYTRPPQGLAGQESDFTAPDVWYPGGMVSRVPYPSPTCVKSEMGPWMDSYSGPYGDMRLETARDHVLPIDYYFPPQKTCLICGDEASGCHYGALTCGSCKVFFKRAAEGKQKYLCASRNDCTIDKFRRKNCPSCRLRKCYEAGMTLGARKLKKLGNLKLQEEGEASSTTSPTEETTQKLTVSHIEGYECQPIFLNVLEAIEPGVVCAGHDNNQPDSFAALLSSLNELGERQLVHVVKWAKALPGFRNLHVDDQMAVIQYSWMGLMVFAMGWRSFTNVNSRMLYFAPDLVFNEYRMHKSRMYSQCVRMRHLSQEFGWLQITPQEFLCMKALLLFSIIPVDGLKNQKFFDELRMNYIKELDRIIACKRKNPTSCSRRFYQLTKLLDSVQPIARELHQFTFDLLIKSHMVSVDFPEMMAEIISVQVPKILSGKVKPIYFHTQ

[8] = molecular target: T5, hAR; experiment: co-transfection assay, AR agonist, CV-1 cells

T1 sequence (P03372 whole entry): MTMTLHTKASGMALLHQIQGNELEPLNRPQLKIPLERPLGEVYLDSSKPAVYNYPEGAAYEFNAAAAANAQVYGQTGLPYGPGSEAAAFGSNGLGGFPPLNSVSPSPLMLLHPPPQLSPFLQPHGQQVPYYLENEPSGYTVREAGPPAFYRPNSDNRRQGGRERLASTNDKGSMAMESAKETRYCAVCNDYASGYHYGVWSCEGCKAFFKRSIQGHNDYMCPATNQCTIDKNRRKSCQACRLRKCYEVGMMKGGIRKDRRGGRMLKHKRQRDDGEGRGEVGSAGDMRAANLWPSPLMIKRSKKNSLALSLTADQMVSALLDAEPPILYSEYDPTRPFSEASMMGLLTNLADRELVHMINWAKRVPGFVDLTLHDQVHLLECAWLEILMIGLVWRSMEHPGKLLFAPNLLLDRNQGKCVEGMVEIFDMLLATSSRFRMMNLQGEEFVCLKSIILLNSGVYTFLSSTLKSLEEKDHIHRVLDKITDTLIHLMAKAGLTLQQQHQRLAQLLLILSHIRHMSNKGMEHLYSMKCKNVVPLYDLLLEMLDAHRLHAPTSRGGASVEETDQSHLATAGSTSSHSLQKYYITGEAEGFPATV

SMILES | EC50 [1] [µM] | EC50 [2] [µM] | IC50 [3] [µM] | IC50 [4] [µM] | IC50 [5] [µM] | IC50 [6] [µM] | IC50 [7] [µM] | AR Antagonist CV-1 Cells Efficacy (%) ([7]; hAR in CV-1 cells, maximal inhibition, DHT at EC50) | IC50 ([7]; read-out: AR Potency Antag, Table 2) [µM] | EC50 ([8]; AR Agonist CV-1 Cells Potency (nM), hAR in CV-1 cells) [nM] | EC50 ([8]; AR Potency Agon (nM), Table 2) [nM] | AR Agonist CV-1 Cells Efficacy (%) ([8]; hAR in CV-1 cells, relative to maximum LUC production by reference agonist) | EC50 ([1]; Table 2, read-out: ER Potency Agon) [µM] | IC50 ([3]; Table 2, read-out: ER Potency Antag) [µM]
CC1CN(CC(F)(F)F)c2cc3c(C(F)(F)F)cc(=O)[nH]c3cc2O1 (racemic) [Compound 114, (±)-1,2,3,6-Tetrahydro-3-methyl-1-(2,2,2-trifluoroethyl)-9-(trifluoromethyl)-7H-[1,4]oxazino[3,2-g]quinolin-7-one] | > 10 | > 10 | > 10 | > 10 | > 10 | > 10 | – | – | – | – | – | – | – | –
CC1COc2cc3[nH]c(=O)cc(C(F)(F)F)c3cc2N1CC(F)(F)F (racemic) [Compound 123, (±)-1,2,3,6-Tetrahydro-2-methyl-1-(2,2,2-trifluoroethyl)-9-(trifluoromethyl)-7H-[1,4]oxazino[3,2-g]quinolin-7-one] | > 10 | > 10 | > 10 | 2.47 | – | 3.16 | > 10 | na (na = not active (i.e. efficacy of < 20 and potency of > 10,000 nM for the cotransfection assay, and Ki > 1000 nM for the binding assay)) | > 10 | 3.4 | 3.4 | 91 | – | –
CN1CCOc2cc3[nH]c(=O)cc(C(F)(F)F)c3cc21 [Compound 101, 1,2,3,6-Tetrahydro-1-methyl-9-(trifluoromethyl)-7H-[1,4]oxazino[3,2-g]quinolin-7-one] | > 10 | > 10 | > 10 | > 10 | > 10 | 6.5 | – | – | – | – | – | – | – | –
CCN1CCOc2cc3[nH]c(=O)cc(C(F)(F)F)c3cc21 [Compound 103, 1-Ethyl-1,2,3,6-tetrahydro-9-(trifluoromethyl)-7H-[1,4]oxazino[3,2-g]quinolin-7-one] | > 10 | > 10 | > 10 | 4.5 | > 10 | > 10 | – | – | – | – | – | – | – | –
O=c1cc(C(F)(F)F)c2cc3c(cc2[nH]1)OCCN3CC1CC1 [Compound 121, 1-Cyclopropylmethyl-1,2,3,6-tetrahydro-9-(trifluoromethyl)-7H-[1,4]oxazino[3,2-g]quinolin-7-one] | > 10 | > 10 | > 10 | 0.415 | 2.57 | 1.05 | – | – | – | – | – | – | – | –
C[C@]1(O)CC[C@H]2[C@@H]3CCC4=CC(=O)CC[C@]4(C)[C@@]3(F)[C@@H](O)C[C@@]21C [Fluox, fluoxymesterone] | – | 1.21 | – | 0.224 | 0.193 | 0.263 | – | – | – | – | – | – | – | –
CC(C)(O)C(=O)Nc1ccc([N+](=O)[O-])c(C(F)(F)F)c1 [Flut, 2-hydroxyflutamide, reference compound] | – | – | – | – | – | – | – | – | – | – | – | – | > 10 | > 10
